The test system of series [1] is muscarinic receptors. Particulars: known; in words; cited from earlier work.
The conditions of series [2]: in words; cited from earlier work.
For series [3] the following is noted: in words; cited from earlier work. The source holds these as a separate data set.
Series [4] deals with muscarinic receptors. Conditions: in words; cited from earlier work.
Series [5] has as its target muscarinic receptors in the CNS. Particulars: cited from earlier work.
The target in series [6] is muscarinic acetylcholine receptors. Description: Inhibition of specific binding of 3H-Oxotremorine-M (3H-Oxo). Conditions: rat cortex; 3H-Oxotremorine 1.0 nM; 20 mM Hepes pH 7.4; 30 min at 25° C. Further details: species or system rat (male Wistar.

Here are results for 24 compounds from patent US5712297A, “Piperdine compounds and their preparation and use” (Novo Nordisk A/S, priority 1989, dated 1998).

Structures can show the parent of a compound that is named as a salt. Where two headings read alike, the source gives them in different places.

Regarding `CC(=O)OC1CN2CCC1CC2` (centres unmarked) [3-acetoxy-quinuclidine], the “muscarinic agonist or antagonist activity” value in series [1] was “muscarinic agonist”. Further, the biological half life result in series [2] is “the same as indicated for arecoline”. Further, the toxicity result in series [3] is listed as “the same as indicated for arecoline”. Moreover, the “separation between central and peripheral muscarinic effects” value in series [4] is “the same as indicated for arecoline”.

Regarding `C[N+](C)(C)CC#CCN1CCCC1=O` [Compound 3H-Oxo, ^3 H-Oxotremorine-M], the Kd in series [5] (high affinity site, read-out: affinity of 3H-Oxo, first (high affinity) site) was 1 nM; in series [5] (medium affinity site, read-out: affinity of 3H-Oxo, second (medium affinity) site) it was 20 nM; in series [5] (third site, not determined under the present experimental conditions, read-out: affinity of 3H-Oxo, third site) it was 3000 nM.

For the compound `CN1CCC=C(c2nsnc2N2CCOCC2)C1` [Compound 45, 3-(4-morpholino-1,2,5-thiadiazol-3-yl)-1,2,5,6-tetrahydro-1-methylpyridineoxalate], in series [6], the “Inhibition in vitro OXO BINDING (IC50: concentration which inhibits the specific binding of 3H-Oxo by 50%)” value was 0.115 µg/mL.

On to `CCCCCCNc1nsnc1C1=CCCN(C)C1` [Compound 46, 3-(4-hexylamino-1,2,5-thiadiazol-3-yl)-1,2,5,6-tetrahydro-1-methylpyridineoxalate], for which the “Inhibition in vitro OXO BINDING (IC50: concentration which inhibits the specific binding of 3H-Oxo by 50%)” value in series [6] was determined as 0.018 µg/mL.

Turning to `CCCSc1nsnc1C1=CCCN(C)C1` [Compound 47, 3-(4-propylthio-1,2,5-thiadiazol-3-yl)-1,2,5,6-tetrahydro-1-methylpyridineoxalate], the “Inhibition in vitro OXO BINDING (IC50: concentration which inhibits the specific binding of 3H-Oxo by 50%)” value in series [6] was 0.0003 µg/mL.

`CCCCSc1nsnc1C1=CCCN(C)C1.O=C(O)C(=O)O` [Compound 48, 3-(4-butylthio-1,2,5-thiadiazol-3-yl)-1,2,5,6-tetrahydro-1-methylpyridine oxalate]: in series [6], the “Inhibition in vitro OXO BINDING (IC50: concentration which inhibits the specific binding of 3H-Oxo by 50%)” value turned out to be 0.0006 µg/mL.

For the compound `CSc1nsnc1C1=CCCN(C)C1` [Compound 49, 3-(4-methylthio-1,2,5-thiadiazol-3-yl)-1,2,5,6-tetrahydro-1-methylpyridineoxalate], the “Inhibition in vitro OXO BINDING (IC50: concentration which inhibits the specific binding of 3H-Oxo by 50%)” value in series [6] was determined as 0.0007 µg/mL.

Turning to `CN1CCC=C(c2nonc2N)C1.O=C(O)C(=O)O` [Compound 50, 3-(4-amino-1,2,5-oxadiazol-3-yl)-1,2,5,6-tetrahydro-1-methylpyridine oxalate], the “Inhibition in vitro OXO BINDING (IC50: concentration which inhibits the specific binding of 3H-Oxo by 50%)” value in series [6] worked out at 0.3 µg/mL.

In the case of `CC(=O)Nc1nonc1C1=CCCN(C)C1` [Compound 51, 3-(4-acetylamino-1,2,5-oxadiazol-3-yl)-1,2,5,6-tetrahydro-1-methylpyridineoxalate], the “Inhibition in vitro OXO BINDING (IC50: concentration which inhibits the specific binding of 3H-Oxo by 50%)” value in series [6] was determined as 0.3 µg/mL.

With `CN1CCC=C(c2nonc2Cl)C1.O=C(O)C(=O)O` [Compound 52, 3-(4-chloro-1,2,5-oxadiazol-3-yl)-1,2,5,6-tetrahydro-1-methylpyridine oxalate], in series [6], the “Inhibition in vitro OXO BINDING (IC50: concentration which inhibits the specific binding of 3H-Oxo by 50%)” value was determined as 0.065 µg/mL.

Turning to `CN1CCC=C(c2cnon2)C1.O=C(O)C(=O)O` [Compound 53, 3-(1,2,5-oxadiazol-3-yl)-1,2,5,6-tetrahydro-1-methylpyridine oxalate], the “Inhibition in vitro OXO BINDING (IC50: concentration which inhibits the specific binding of 3H-Oxo by 50%)” value in series [6] is 0.0012 µg/mL.

As for `CCCCCCOc1nonc1C1=CCCN(C)C1.O=C(O)C(=O)O` [Compound 54, 3-(4-hexyloxy-1,2,5-oxadiazol-3-yl)-1,2,5,6-tetrahydro-1-methylpyridine oxalate], the “Inhibition in vitro OXO BINDING (IC50: concentration which inhibits the specific binding of 3H-Oxo by 50%)” value in series [6] turned out to be 0.02 µg/mL.

In the case of `CCCCOc1nonc1C1=CCCN(C)C1.O=C(O)C(=O)O` [Compound 55, 3-(4-butyloxy-1,2,5-oxadiazol-3-yl)-1,2,5,6-tetrahydro-1-methylpyridine oxalate], in series [6], the “Inhibition in vitro OXO BINDING (IC50: concentration which inhibits the specific binding of 3H-Oxo by 50%)” value turned out to be 0.008 µg/mL.

Regarding `CCC#CCCOc1nonc1C1=CCCN(C)C1.O=C(O)C(=O)O` [Compound 56, 3-(4-(3-hexynyloxy)-1,2,5-oxadiazol-3-yl)-1,2,5,6-tetrahydro-1-methylpyridine oxalate], in series [6], the “Inhibition in vitro OXO BINDING (IC50: concentration which inhibits the specific binding of 3H-Oxo by 50%)” value worked out at 0.0021 µg/mL.

For the compound `CCCCCCCc1nsnc1C1=CCCN(C)C1` [Compound 58, 3-(4-heptyl-1,2,5-thiadiazol-3-yl)-1,2,5,6-tetrahydro-1-methylpyridinium oxalate], the “Inhibition in vitro OXO BINDING (IC50: concentration which inhibits the specific binding of 3H-Oxo by 50%)” value in series [6] was 0.05 µg/mL.

`CCCCCCCCc1nsnc1C1=CCCN(C)C1` [Compound 60, 3-(4-octyl-1,2,5-thiadiazol-3-yl)-1,2,5,6-tetrahydro-1-methylpyridinium oxalate]: the “Inhibition in vitro OXO BINDING (IC50: concentration which inhibits the specific binding of 3H-Oxo by 50%)” value in series [6] worked out at 0.164 µg/mL.

As for `CC(C)Cc1nsnc1C1=CCCN(C)C1` [Compound 61, 3-(4-isobutyl-1,2,5-thiadiazol-3-yl)-1,2,5,6-tetrahydro-1-methylpyridinium oxalate], in series [6], the “Inhibition in vitro OXO BINDING (IC50: concentration which inhibits the specific binding of 3H-Oxo by 50%)” value amounted to 0.05 µg/mL.

Turning to `CN1CCC=C(c2nsnc2CC2CC2)C1` [Compound 62, 3-(4-cyclopropylmethyl-1,2,5-thiadiazol-3-yl)-1,2,5,6-tetrahydro-1-methylpyridinium oxalate], the “Inhibition in vitro OXO BINDING (IC50: concentration which inhibits the specific binding of 3H-Oxo by 50%)” value in series [6] amounted to 0.032 µg/mL.

As to `CCCc1nsnc1C1=CCCN(C)C1` [Compound 63, 3-(4-propyl-1,2,5-thiadiazol-3-yl)-1,2,5,6-tetrahydro-1-methylpyridinium oxalate], the “Inhibition in vitro OXO BINDING (IC50: concentration which inhibits the specific binding of 3H-Oxo by 50%)” value in series [6] amounted to 0.025 µg/mL.

Regarding `CCCCCCCCSc1nsnc1C1=CCCN(C)C1.O=C(O)C(=O)O` [Compound 64, 3-(4-octylthio-1,2,5-thiadiazol-3-yl)-1,2,5,6-tetrahydro-1-methylpyridine oxalate], in series [6], the “Inhibition in vitro OXO BINDING (IC50: concentration which inhibits the specific binding of 3H-Oxo by 50%)” value came out at 0.058 µg/mL.

Consider `CCSc1nsnc1C1=CCCN(C)C1.O=C(O)C(=O)O` [Compound 65, 3-(4-ethylthio-1,2,5-thiadiazol-3-yl)-1,2,5,6-tetrahydro-1-methylpyridine oxalate], for which the “Inhibition in vitro OXO BINDING (IC50: concentration which inhibits the specific binding of 3H-Oxo by 50%)” value in series [6] was determined as 0.0006 µg/mL.

Consider `CCCCCSc1nsnc1C1=CCCN(C)C1` [Compound 66, 3-(4-pentylthio-1,2,5-thiadiazol-3-yl)-1,2,5,6-tetrahydro-1-methylpyridineoxalate], for which the “Inhibition in vitro OXO BINDING (IC50: concentration which inhibits the specific binding of 3H-Oxo by 50%)” value in series [6] was determined as 0.0018 µg/mL.

With `CCCCCCSc1nsnc1C1=CCCN(C)C1.O=C(O)C(=O)O` [Compound 67, 3-(4-hexylthio-1,2,5-thiadiazol-3-yl)-1,2,5,6-tetrahydro-1-methylpyridine oxalate], the “Inhibition in vitro OXO BINDING (IC50: concentration which inhibits the specific binding of 3H-Oxo by 50%)” value in series [6] was 0.0016 µg/mL.

`COC(=O)C1=CCCN(C)C1` [arecoline, methyl 1-methyl-1,2,5,6-tetrahydropyridine-3-carboxylate]: the “muscarinic agonist or antagonist activity” value in series [1] is “cholinergic agonist”. Also, the biological half life entry in series [2] was “very short biological half life”. Moreover, in series [3], the toxicity result is “rather toxic compound”. The “separation between central and peripheral muscarinic effects” value in series [4] is “small separation between central and peripheral muscarinic effects”.
